Assay results: patent US8552038B2, “Crystalline forms of thiazolidinedione compound and its manufacturing method” (Daiichi Sankyo Company, Limited, priority 2007, dated 2013)
Entries after “also recorded” stand apart in the source; their conditions may differ. Structures can show the parent of a compound that is named as a salt. Where two headings read alike, the source gives them in different places.

Tests used:
[1] = Solubility test in simulated gastric fluid; assay type: physicochemical; details: dihydrochloride; for Solubility: 37° C., after 60 minutes, paddle 250 rpm, free body conversion
Procedure: Solubilities of Crystalline form A and Crystalline form B of Compound (I) in a simulated gastric fluid were measured by the method below (free body conversion).
10 times concentrated Liquid 1 used for the disintegration test of the Japanese Pharmacopoeia (purchased from Kanto Chemical Co., Inc.) was diluted 10-fold with purified water to give a simulated gastric fluid. Approximately 80 mg of the crystalline form for measurement were precisely measured, transferred to a 25 ml volumetric flask, and dissolved in methanol to bring the total volume to 25 ml. 2 ml of the resulting solution were transferred to a 50 ml volumetric flask, and the simulated gastric fluid was added thereto to bring the total volume to 50 ml to give a standard solution.
By using an elution testing machine NTR-6100A (Toyama Sangyo Co., Ltd.), approximately 100 mg of the subject crystalline form were added to 500 ml of the simulated gastric fluid at 37° C., and agitated with a paddle (250 rpm). After 60 minutes, samples were taken from the test solution. The absorbance of the standard solution and test solution samples was measured at 289 nm and 360 nm by using a UV visible spectrophotometer.
weighing amount of the crystalline form used for the preparation of the standard solution (mg): WS;
absorbance of the standard solution at 289 nm: AS289;
absorbance of the standard solution at 360 nm: AS360;
absorbance of the test solution at 289 nm: AT289;
absorbance of the test solution at 360 nm: AT360;
molecular weight of the dihydrochloride monohydrate of Compound (I): 593.52; and
molecular weight of the free body of Compound (I): 502.58

[2] = system: human stomach cancer cells, human breast cancer cells, small cell lung cancer, pancreas cancer cells, prostate cancer cells, kidney cancer cells …; details: Test Example 1 in WO 2007/091622; cited from earlier work
human leukemia cells = details: Test Example 2 in WO 2007/091622; cited from earlier work
[3] = system: human colon cancer cell lines; details: Test Example 3 in WO 2007/091622; cited from earlier work
cancer cells = details: cited from earlier work
[4] = system: human non-small cell lung cancer; details: Test Example 5, cited from earlier work
human kidney cancer = details: Test Example 7, cited from earlier work
[5] = biological target: T1, peroxisome proliferator-activated receptor (PPAR) γ (Homo sapiens, UniProt P37231); details: disclosed in Patent Literature 1-5; cited from earlier work
T1 sequence (P37231 1-505): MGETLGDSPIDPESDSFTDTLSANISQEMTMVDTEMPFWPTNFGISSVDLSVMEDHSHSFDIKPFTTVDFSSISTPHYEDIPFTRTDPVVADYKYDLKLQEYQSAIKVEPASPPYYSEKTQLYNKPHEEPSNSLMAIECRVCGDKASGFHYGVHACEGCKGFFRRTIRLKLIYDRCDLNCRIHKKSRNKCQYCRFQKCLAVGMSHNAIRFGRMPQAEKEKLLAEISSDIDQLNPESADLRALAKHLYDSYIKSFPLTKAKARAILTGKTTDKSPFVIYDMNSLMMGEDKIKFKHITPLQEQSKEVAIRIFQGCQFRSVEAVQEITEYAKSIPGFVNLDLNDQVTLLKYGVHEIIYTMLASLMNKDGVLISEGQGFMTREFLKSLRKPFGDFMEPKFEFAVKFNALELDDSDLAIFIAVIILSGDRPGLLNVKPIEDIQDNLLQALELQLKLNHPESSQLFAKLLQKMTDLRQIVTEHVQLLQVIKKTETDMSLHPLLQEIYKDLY

SMILES: Cc1cc(Oc2ccc3nc(COc4ccc(CC5SC(=O)NC5=O)cc4)n(C)c3c2)cc(C)c1N (single isomer, unassigned) [Crystalline form A, monohydrate of 5-(4-{[6-(4-amino-3,5-dimethylphenoxy)-1-methyl-1-H-benzimidazol-2-yl]methoxy}benzyl)-1,3-thiazolidine-2,4-dione dihydrochloride]
- Solubility [1]: 76.92 µg/mL
- Solubility, assessment in words [1]: sufficient solubility as a pharmaceutical ingredient

SMILES: Cc1cc(Oc2ccc3nc(COc4ccc(CC5SC(=O)NC5=O)cc4)n(C)c3c2)cc(C)c1N (single isomer, unassigned) [Crystalline form B, monohydrate of 5-(4-{[6-(4-amino-3,5-dimethylphenoxy)-1-methyl-1-H-benzimidazol-2-yl]methoxy}benzyl)-1,3-thiazolidine-2,4-dione dihydrochloride]
- Solubility [1]: 155.25 µg/mL
- Solubility, assessment in words [1]: sufficient solubility as a pharmaceutical ingredient; also recorded: higher solubility than the Compound (I) which has been known

SMILES: Cc1cc(Oc2ccc3nc(COc4ccc(CC5SC(=O)NC5=O)cc4)n(C)c3c2)cc(C)c1N (centres unmarked) [dihydrochloride of Compound (I), 5-(4-{[6-(4-amino-3,5-dimethylphenoxy)-1-methyl-1-H-benzimidazol-2-yl]methoxy}benzyl)-1,3-thiazolidine-2,4-dione dihydrochloride]
- activity to suppress proliferation of cancer cells [2]: significant activity to suppress proliferation
- proliferation suppressing activity in human leukemia cells (human leukemia cells): inhibits significantly proliferation suppressing activity
- antitumor activity in vivo [3]: significant antitumor activity
- activity to suppress proliferation in cancer cells, combination (cancer cells; in combination with a VEGFR inhibitor or a Raf kinase inhibitor, Test Example 6): synergetic activity to suppress proliferation
- activity to suppress proliferation in cancer cells, combination (cancer cells; in combination with an epidermal growth factor receptor (EGFR) inhibitor, Test Example 4): synergetic activity to suppress proliferation
- antitumor activity ([4]; alone): exerts an antitumor activity
- antitumor activity, combination ([4]; in combination with an EGFR inhibitor): enhanced antitumor activity
- antitumor activity (human kidney cancer; alone): exerts an antitumor activity
- antitumor activity, combination (human kidney cancer; in combination with a VEGFR inhibitor or a Raf kinase inhibitor): enhanced antitumor activity

SMILES: Cc1cc(Oc2ccc3nc(COc4ccc(CC5SC(=O)NC5=O)cc4)n(C)c3c2)cc(C)c1N (centres unmarked) [Compound (I), 5-(4-{[6-(4-amino-3,5-dimethylphenoxy)-1-methyl-1-H-benzimidazol-2-yl]methoxy}benzyl)-1,3-thiazolidine-2,4-dione]
- ability of PPARγ activation [5]: significant ability of peroxisome proliferator-activated receptor (PPAR) γ activation
